Assay [1] addresses T1, IRE1a (Homo sapiens, UniProt O75460). Kind of assay: IRE1a Endoribonuclease Nanoluciferase Assay (XBP1 luciferase reporter in 293T cells). The class given is cell-based. The settings on record: 293T cells transfected with XBP1 luciferase reporter, ER stressors +/- inhibitors. How it is done: Compounds disclosed herein were assessed for disruption of IRE1 signaling using a IRE1a Endoribonuclease Nanoluciferase Assay. Briefly, 2.5×10^6 293T cells were seeded in a 10 cm^2 tissue culture plate. About 24 hours later, the cells were transfected with Effectene. In a 15 mL Tube, the following was added: 2 ug XBP1 luciferase reporter plasmid (PGK-Luc2-P2A-XBP1u-Nanoluciferase-PEST); 300 ul EC buffer; and 16 ul Enhancer, followed by incubation at room temp for 5 minutes. Next, 60 ul Effectene (Qiagen 301427) was added, followed by incubation at room temperature for 10 minutes. 2.6 mL cDMEM media was added. Old media was aspirated from the cells, followed by addition of 7 mL fresh media. Full transfection mixture was added dropwise to cells. Cells were incubated for 6 hours, followed by trypsinization, centrifugation and resuspension in 11 mL media. 100 uL of cells were plated per a well in a 96 well plate. A day later, ER stressors of choice +/− inhibitors were added. To harvest, media was aspirated from cells completely, then 50 uL 1× passive lysis buffer (Promega: E1941) was added per well and put on shaker (300 rpm) for 30 minutes at room temperature. Cells were centrifuged, and 15 uL sample per well was added to a new, opaque white 384 well plate (Corning 3570). 15 uL OneGlo (nanoluciferase kit, Promega N1630) was added. Plates were spun down, placed on shaker (300 rpm) for 10 minutes. Plates were read on luminometer, 1000 ms integration time per well. 15 uL Stop and Glo (nanoluciferase kit) was added. Plates were spun down, placed on shaker (300 rpm) for 10 minutes. Plates were read on luminometer, 1000 ms second integration time per well. Recordings are provided below in Table 4.
A general note: A reporter such as luciferase makes a cellular process visible.

For assay [2], the target named is T1, IRE1a. Description: In vitro FRET assay (XBP1 RNA probe cleavage by IRE1a). The arrangement: purchased SignalChem. The settings on record: 2 nM IRE1a protein. The class given is biochemical. As to the method:
In vitro FRET assay was performed to evaluate the ability of select compounds to inhibit IRE1, the results of which are summarized in Table 3. To perform the in vitro FRET assay, 1× complete assay buffer (CAB; […], 50 mM sodium citrate pH 7.15, ImM magnesium acetate, 0.02% tween 20) was used to dilute SignalChem IRE1a protein to a final concentration of 2 nM. Selected compounds were serially diluted with DMSO in a non-binding black 384-well plate for a total of 15 ul in each well. 2 ul of the serially diluted compound or DMSO control were then added to new wells containing 98 ul of 1×CAB, for a total volume of 100 ul, 10 ul of which were then transferred to wells of a new plate. 5 ul of the diluted IRE1a was then added to each well. 5 ul of a […] XBP1 RNA probe was then added to each well. Fluorescence was then read over 30 minutes in kinetic mode (485/515 nm).
Two RNA probes were used, XBP1 wildtype (SEQ ID NO: 2) which is able to be spliced by active IRE1a or XBP1 mutant (SEQ ID NO: 3) which is unable to be spliced. Each probe contained a 5′ 6-FAM modification and a 3′ IOWA Black FQ modification. […]

Some results are limits rather than exact numbers.

Here are results for 17 compounds from US20180346446A1, “IRE1 SMALL MOLECULE INHIBITORS” (QUENTIS THERAPEUTICS, INC., priority 2017, published 2018).

A word on the EC50: it is the concentration at which the effect is half-maximal. Higher therefore signals a need for much substance. A word on the IC50: it is the concentration needed to halve the response being measured. A lower IC50 goes with higher potency.

T1 sequence (O75460 19-977): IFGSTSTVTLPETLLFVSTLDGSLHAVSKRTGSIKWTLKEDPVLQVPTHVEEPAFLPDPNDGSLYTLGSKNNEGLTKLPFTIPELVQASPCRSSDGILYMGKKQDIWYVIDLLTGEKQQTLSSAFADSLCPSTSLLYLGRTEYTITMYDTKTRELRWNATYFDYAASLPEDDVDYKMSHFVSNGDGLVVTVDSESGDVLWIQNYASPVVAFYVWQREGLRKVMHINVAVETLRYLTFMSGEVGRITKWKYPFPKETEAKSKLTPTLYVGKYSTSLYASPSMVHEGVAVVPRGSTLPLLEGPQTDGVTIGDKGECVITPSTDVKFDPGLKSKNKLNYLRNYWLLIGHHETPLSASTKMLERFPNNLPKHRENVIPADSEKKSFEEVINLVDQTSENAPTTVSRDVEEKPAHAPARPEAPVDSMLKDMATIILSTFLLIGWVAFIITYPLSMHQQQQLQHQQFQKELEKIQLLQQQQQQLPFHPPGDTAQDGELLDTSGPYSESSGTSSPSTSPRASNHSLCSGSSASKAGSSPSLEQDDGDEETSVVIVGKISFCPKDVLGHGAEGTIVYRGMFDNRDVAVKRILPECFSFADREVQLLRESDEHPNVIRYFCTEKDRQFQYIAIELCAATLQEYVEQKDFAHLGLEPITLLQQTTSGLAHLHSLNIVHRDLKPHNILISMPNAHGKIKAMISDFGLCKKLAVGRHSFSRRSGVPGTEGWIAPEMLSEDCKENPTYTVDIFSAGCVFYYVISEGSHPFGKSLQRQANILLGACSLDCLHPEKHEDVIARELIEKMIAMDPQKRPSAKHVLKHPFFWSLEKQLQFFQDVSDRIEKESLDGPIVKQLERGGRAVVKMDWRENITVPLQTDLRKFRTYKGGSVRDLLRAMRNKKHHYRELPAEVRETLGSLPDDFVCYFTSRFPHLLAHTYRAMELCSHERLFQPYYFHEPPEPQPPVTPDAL

At IRE1a [1], `NC12CCC(Nc3ncc4cc(-c5ccc(NS(=O)(=O)c6ccccc6Cl)c(F)c5)ccc4n3)(CC1)C2` [86; Formic Acid] showed an EC50 of 50 to 100 nM. On IRE1a [2], this compound registered an IC50 of no more than 5 nM.

Compound `CCc1cc(-c2ccc(NS(=O)(=O)c3ccccc3C)nc2C)cc2cnc(N[C@H]3CC[C@H](N)CC3)nc12` [112; Formic Acid] returned an EC50 on IRE1a [1] of 5 to 50 nM. On IRE1a [2], this compound displayed an IC50 of no more than 5 nM.

`Cc1cc(NS(=O)(=O)c2ccccc2Cl)ccc1-c1ccc2nc(N[C@H]3CC[C@H](N)CC3)ncc2c1` [Compound 2, N-(4-(2-(((1r,4r)-4-aminocyclohexyl)amino)quinazolin-6-yl)-3-methylphenyl)-2-chlorobenzenesulfonamide] registered an EC50 on IRE1a [1] greater than 100 nM. In addition, the IC50 against IRE1a [2] is no more than 5 nM.

Take `CCc1cc(-c2cc(F)c(NS(=O)(=O)c3ccccc3Cl)cc2OC)cc2cnc(N[C@H]3CC[C@H](N(C)C)CC3)nc12` [120; Formic Acid]: the EC50 at IRE1a [1] is no more than 5 nM. This compound also yielded an IC50 against IRE1a [2] of no more than 5 nM.

`NC12CCC(Nc3ncc4cc(-c5ccc(NS(=O)(=O)c6ccccc6Cl)c(F)c5)ccc4n3)(CC1)CC2` [81; Formic Acid]: the EC50 at IRE1a [1] was no more than 5 nM. Also, the IC50 at IRE1a [2] was no more than 5 nM.

For `CCc1cc(-c2cnc(NS(=O)(=O)c3ccccc3Cl)cc2C)cc2cnc(N[C@H]3CC[C@H](N)CC3)nc12` [Compound 4, N-(5-(2-(((1r,4r)-4-aminocyclohexyl)amino)-8-ethylquinazolin-6-yl)-4-methylpyridin-2-yl)-2-chlorobenzenesulfonamide], at IRE1a [1], the EC50 lay in the range of 50 to 100 nM. Besides, the IC50 against IRE1a [2] was no more than 5 nM.

The compound `CCc1cc(-c2ccc(NS(=O)(=O)c3ccccc3C)nc2OC)cc2cnc(N[C@H]3CC[C@H](N)CC3)nc12` [103; Formic Acid] gave an EC50 on IRE1a [1] of no more than 5 nM. In addition, the IC50 against IRE1a [2] was no more than 5 nM.

On to `CCc1cc(-c2cc(CC)c3nc(N[C@H]4CC[C@H](N)CC4)ncc3c2)nnc1NS(=O)(=O)c1ccccc1Cl` [100; Formic Acid], for which the concentration giving a half-maximal response (EC50) on IRE1a [1] is 50 to 100 nM. Moreover, at IRE1a [2], the IC50 was no more than 5 nM.

On IRE1a [1], `CCc1cc(-c2ccc(NS(=O)(=O)c3ccccc3Cl)c(F)c2)cc2cnc(N[C@@H]3CC[C@@H](N)C3)nc12` [78; Formic Acid] yielded an EC50 of no more than 5 nM. The IC50 on IRE1a [2] is no more than 5 nM.

As for `CCc1cc(-c2ccc(NS(=O)(=O)c3ccccc3Cl)c(F)c2)cc2cnc(N[C@H]3CC[C@H](NC)CC3)nc12` [60; Formic Acid], the EC50 on IRE1a [1] was no more than 5 nM. Moreover, at IRE1a [2], the IC50 was no more than 5 nM.

On to `N[C@H]1CC[C@H](Nc2ncc3cc(-c4cnc(NS(=O)(=O)c5ccccc5Cl)c(F)c4)ccc3n2)CC1` [54; Formic Acid], for which the EC50 at IRE1a [1] was in the range of 5 to 50 nM. The compound also showed an IC50 against IRE1a [2] of no more than 5 nM.

`CCc1cc(-c2ccc(NS(=O)(=O)c3ccccc3Cl)c(F)c2)cc2cnc(N[C@@H]3CC[C@H](N)[C@H](C)C3)nc12` [70; Formic Acid] returned an EC50 on IRE1a [1] of no more than 5 nM. The IC50 on IRE1a [2] was no more than 5 nM.

Turning to `COCc1cc(-c2ccc(NS(=O)(=O)c3ccccc3Cl)nc2OC)cc2cnc(N[C@H]3CC[C@H](N)CC3)nc12` [129; Formic Acid], the concentration for a half-maximal effect (EC50) at IRE1a [1] was no more than 5 nM. Besides, on IRE1a [2], the IC50 is no more than 5 nM.

In turn, `CCc1cc(-c2ccc(NS(=O)(=O)c3ccccc3Cl)c(F)c2)cc2cnc(N[C@H]3CCCNC3)nc12` [73; Formic Acid] returned an EC50 at IRE1a [1] of no more than 5 nM. In addition, the half-maximal inhibitory concentration (IC50) on IRE1a [2] is no more than 5 nM.

For `CCc1cc(-c2ccc(NS(=O)(=O)c3ccccc3Cl)c(F)c2)cc2cnc(N[C@H]3CC[C@H](NC(C)=O)CC3)nc12` [59; Formic Acid], the EC50 on IRE1a [1] fell in the range of 50 to 100 nM. On IRE1a [2], this compound gave an IC50 of 5 to 50 nM.

On to `COc1nc(NS(=O)(=O)c2ccccc2C#N)ccc1-c1cc2cnc(N[C@H]3CC[C@H](N)CC3)nc2cc1C` [102; Formic Acid], for which the EC50 at IRE1a [1] was 50 to 100 nM. Moreover, the IC50 against IRE1a [2] was no more than 5 nM.

In the case of “N-(4-(2-(((1r,4r)-4-aminocyclohexyl)amino)quinazolin-6-yl)-3-methylphenyl)-3-chlorobenzenesulfonamide [Compound 11]”, the EC50 at IRE1a [1] was greater than 100 nM. Besides, at IRE1a [2], the IC50 was no more than 5 nM.
